Values after ≈ are worked out from the molar mass of the structure shown.
How the values were obtained:
Type in all cases: functional
Pseudomonas aeruginosa = assay: Antibacterial activity against Pseudomonas aeruginosa ATCC 27853 by microtiter-tube dilution method
Candida tropicalis = assay: Antifungal activity against Candida tropicalis by microtiter-tube dilution method
Enterococcus faecalis = assay: Antibacterial activity against Enterococcus faecalis ATCC 29212 by microtiter-tube dilution method
[1] = Uterocontractile activity in rat uterus assessed as contraction at 7.4 uM relative to acetylcholine
Escherichia coli = assay: Antibacterial activity against Escherichia coli ATCC 25922 by microtiter-tube dilution method
Staphylococcus aureus = assay: Antibacterial activity against Staphylococcus aureus ATCC 29213 by microtiter-tube dilution method
Candida albicans [2] = assay: Antifungal activity against Candida albicans by microtiter-tube dilution method
Cryptococcus neoformans = assay: Antifungal activity against Cryptococcus neoformans by microtiter-tube dilution method
Candida albicans [3] = assay: Antifungal activity against Candida stellatoidea by microtiter-tube dilution method
Pichia kudriavzevii = assay: Antifungal activity against Candida krusei by microtiter-tube dilution method
Candida parapsilosis = assay: Antifungal activity against Candida parapsilosis by microtiter-tube dilution method; conditions: Lodderomyces parapsilosis
Kluyveromyces marxianus = assay: Antifungal activity against Candida pseudotropicalis by microtiter-tube dilution method
[4] = Uterocontractile activity in rat uterus assessed as contraction at 8.6 uM relative to acetylcholine
[5] = Uterocontractile activity in rat uterus assessed as contraction at 6.5 uM relative to acetylcholine
[6] = Uterocontractile activity in rat uterus assessed as contraction at 7.5 uM relative to acetylcholine
[7] = Uterocontractile activity in rat uterus assessed as contraction at 20 uM relative to acetylcholine
[8] = Uterocontractile activity in rat uterus assessed as contraction at 19 uM relative to acetylcholine
[9] = Uterocontractile activity in rat uterus assessed as contraction at 6.4 uM relative to acetylcholine

Compound | MIC (Pseudomonas aeruginosa) | MIC (Candida tropicalis) | MIC (Enterococcus faecalis) | Activity [1] | MIC (Escherichia coli) | MIC (Staphylococcus aureus) | MIC (Candida albicans [2]) | MIC (Cryptococcus neoformans) | MIC (Candida albicans [3]) | MIC (Pichia kudriavzevii) | MIC (Candida parapsilosis) | MIC (Kluyveromyces marxianus) | Activity [4] | Activity [5] | Activity [6] | Activity [7] | Activity [8] | Activity [9]
C[C@]1(C=O)CC[C@]23CO[C@@]4(CC[C@@H]5[C@@]6(C)CC[C@H](O[C@@H]7OC[C@H](O[C@@H]8O[C@H](CO)[C@@H](O)[C@H](O)[C@H]8O[C@@H]8OC[C@H](O)[C@H](O)[C@H]8O)[C@H](O)[C@H]7O[C@@H]7O[C@H](CO)[C@@H](O)[C@H](O)[C@H]7O)[C@@](C)(CO)[C@@H]6CC[C@@]5(C)[C@]4(C)C[C@H]2O)[C@@H]3C1 [CYCLACOUMIN] | > 400 µg/mL | 160 µg/mL (≈ 149 µM) | > 400 µg/mL | 58.2% | > 400 µg/mL | > 400 µg/mL | 160 µg/mL (≈ 149 µM) | 80 µg/mL (≈ 74.3 µM) | 160 µg/mL (≈ 149 µM) | > 320 µg/mL | 80 µg/mL (≈ 74.3 µM) | 160 µg/mL (≈ 149 µM) | – | – | – | – | – | –
CC1(C)[C@@H](O[C@@H]2OC[C@H](O[C@@H]3O[C@H](CO)[C@@H](O)[C@H](O)[C@H]3O)[C@H](O)[C@H]2O[C@@H]2O[C@H](CO)[C@@H](O)[C@H](O)[C@H]2O)CC[C@]2(C)[C@H]3CC[C@]45OC[C@@]6(CC[C@](C)(C=O)C[C@H]64)[C@H](O)C[C@@]5(C)[C@]3(C)CC[C@@H]12 [CYCLAMINORIN] | > 400 µg/mL | 160 µg/mL (≈ 172 µM) | > 400 µg/mL | – | > 400 µg/mL | > 400 µg/mL | 160 µg/mL (≈ 172 µM) | 80 µg/mL (≈ 86.1 µM) | 160 µg/mL (≈ 172 µM) | > 320 µg/mL | 80 µg/mL (≈ 86.1 µM) | 160 µg/mL (≈ 172 µM) | 46.2% | – | – | – | – | –
CC1(C)[C@@H](O[C@@H]2OC[C@H](O[C@@H]3O[C@H](CO)[C@@H](O)[C@H](O[C@@H]4O[C@H](CO)[C@@H](O)[C@H](O)[C@H]4O)[C@H]3O[C@@H]3OC[C@@H](O)[C@H](O)[C@H]3O)[C@H](O)[C@H]2O[C@@H]2O[C@H](CO)[C@@H](O)[C@H](O)[C@H]2O)CC[C@]2(C)[C@H]3CC[C@]45OC[C@@]6(CC[C@](C)(C=O)C[C@H]64)[C@H](O)C[C@@]5(C)[C@]3(C)CC[C@@H]12 [CYCLAMIN] | > 400 µg/mL | – | > 400 µg/mL | – | > 400 µg/mL | > 400 µg/mL | – | – | – | – | – | – | – | 48.4% | – | – | – | –
CC1(C)[C@@H](O[C@@H]2OC[C@H](O[C@@H]3O[C@H](CO)[C@@H](O)[C@H](O)[C@H]3O[C@@H]3OC[C@H](O)[C@H](O)[C@H]3O)[C@H](O)[C@H]2O[C@@H]2O[C@H](CO)[C@@H](O)[C@H](O)[C@H]2O)CC[C@]2(C)[C@H]3CC[C@]45OC[C@@]6(CC[C@](C)(C=O)C[C@H]64)[C@H](O)C[C@@]5(C)[C@]3(C)CC[C@@H]12 [DEGLUCOCYCLAMIN] | > 400 µg/mL | 160 µg/mL (≈ 151 µM) | > 400 µg/mL | – | > 400 µg/mL | > 400 µg/mL | 160 µg/mL (≈ 151 µM) | 80 µg/mL (≈ 75.4 µM) | 160 µg/mL (≈ 151 µM) | > 320 µg/mL | 80 µg/mL (≈ 75.4 µM) | 160 µg/mL (≈ 151 µM) | – | – | 36.7% | – | – | –
CC1(C)[C@@H](O[C@@H]2OC[C@H](O[C@@H]3O[C@H](CO[C@@H]4O[C@H](CO)[C@@H](O)[C@H](O)[C@H]4O)[C@@H](O)[C@H](O)[C@H]3O[C@@H]3OC[C@H](O)[C@H](O)[C@H]3O)[C@H](O)[C@H]2O[C@@H]2O[C@H](CO)[C@@H](O)[C@H](O)[C@H]2O)CC[C@]2(C)[C@H]3CC[C@]45OC[C@@]6(CC[C@](C)(C=O)C[C@H]64)[C@H](O)C[C@@]5(C)[C@]3(C)CC[C@@H]12 [ISOCYCLAMIN] | > 400 µg/mL | – | > 400 µg/mL | – | > 400 µg/mL | > 400 µg/mL | – | – | – | – | – | – | – | 0.1% | – | 28.3% | – | –
CC1(C)[C@@H](O[C@@H]2OC[C@H](O[C@@H]3O[C@H](CO[C@@H]4O[C@H](CO)[C@@H](O)[C@H](O)[C@H]4O)[C@@H](O)[C@H](O)[C@H]3O[C@@H]3OC[C@H](O)[C@H](O)[C@H]3O)[C@H](O)[C@H]2O[C@@H]2O[C@H](CO)[C@@H](O)[C@H](O)[C@H]2O)CC[C@]2(C)[C@H]3CC=C4[C@@H]5C[C@]6(C)CC[C@]5(COC6=O)[C@H](O)C[C@@]4(C)[C@]3(C)CC[C@@H]12 [MIRABILIN LACTONE] | > 400 µg/mL | – | > 400 µg/mL | – | > 400 µg/mL | > 400 µg/mL | – | – | – | – | – | – | – | 0.6% | – | 5.7% | – | –
CC1(C)[C@@H](O[C@@H]2OC[C@H](O[C@@H]3O[C@H](CO[C@@H]4O[C@H](CO)[C@@H](O)[C@H](O)[C@H]4O)[C@@H](O)[C@H](O)[C@H]3O[C@@H]3OC[C@H](O)[C@H](O)[C@H]3O)[C@H](O)[C@H]2O[C@@H]2O[C@H](CO)[C@@H](O)[C@H](O)[C@H]2O)CC[C@]2(C)[C@H]3CC=C4[C@@H]5C[C@@](C)(C(=O)O)CC[C@]5(CO)[C@H](O)C[C@@]4(C)[C@]3(C)CC[C@@H]12 [MIRABILIN] | > 400 µg/mL | – | > 400 µg/mL | – | > 400 µg/mL | > 400 µg/mL | – | – | – | – | – | – | – | – | – | – | 1.1% | 0.7%

Reference: ChEMBL document CHEMBL1145722, “Triterpene saponins from Cyclamen mirabile and their biological activities” (1997)
